{
  "source": "patent US20240075140A1",
  "about": "“ENGINEERED NK CELLS AND METHODS OF TREATING CANCER” (American Gene Technologies Intemational Inc, priority 2021, published 2024)",
  "test_system": "Daudi cells",
  "assay": "CD107a response of Mitomycin C treated S76 to Daudi cells",
  "type": "cell-based",
  "details": "various concentrations, 1 or 2 hours; Daudi 2:1, 4 hours",
  "method": "Cloned S76 cells were treated with MMC at various concentration for 1 or 2 hours. After MMC treatment, S76 was mixed with Daudi cells at a 2:1 ratio for 4 hours. CD107a was measured by flow cytometry. For detecting CD107a, cells were washed, resuspended in 50-100 μl of staining buffer, and stained with mouse anti-human Vδ2-PE clone B6 and mouse anti-human CD107a-APC clone H4A3. Cells were washed with staining buffer and resuspended. Data for at least 1×10^4 lymphocytes (gated on the basis of forward- and side-scatter profiles) were acquired from each sample on a FACSCalibur flow cytometer (BD Biosciences). All samples were analyzed using FlowJo software.",
  "data": [
    {"molecule": "CO[C@@]12[C@H](COC(N)=O)C3=C(C(=O)C(C)=C(N)C3=O)N1C[C@@H]1N[C@@H]12", "note": "[MMC, Mitomycin C]", "values": [
      {"measurement": "effect of Mitomycin C treatment on function of clone S76 (CD107a response to Daudi)", "result": "did not significantly impair the function"}
    ]}
  ]
}
